Measurements as given in US20250345468A1, “COMBINATION TREATMENT OF SMALL-CELL LUNG CANCER” (ITM ISOTOPE TECHNOLOGIES MUNICH SE, priority 2022, published 2025).
Blank lines part the entries; values can stand above or below the compound they belong to.

Key:
[1] = tested on: H69 SCLC cells; experiment: Tumor growth delay and survival, H69 xenograft mouse model; details: PARP inhibitor alone
Method: H446 (FIG. 5) or H69 (FIG. 6) SCLC cells were subcutaneously inoculated in athymic nude mice to establish xenograft mouse models (injection of about 2 mio. cells in 200 μl Medium/Matrigel (1:1). Tumor volume and body weight were monitored daily during the study period. The differences of the initial tumor volume and the body weight of the mice of each treatment arm were negligible. The animals were treated with either PARP inhibitor alone or ^177Lu-DOTATOC alone, or with a combination of PARP inhibitor and of ^177Lu-DOTATOC. The onset of the treatment was at day 19 (H446 model) or at day 11 (H69 model) (administration of the PARP inhibitor), respectively. These groups were compared to an untreated control group. While the radiopharmaceutical was administered to the animals only once, the animals were treated with PARP inhibitor in two cycles of five days each (10 mg/kg in 200 μl PBS i.p.) at days 19 to 23 and 26 to 30 or at days 11 to 15 and 18 to 22, respectively. The treatment was interrupted for two days after the end of the first PARP inhibitor treatment cycle. ^177Lu-DOTATOC (40 MBq, 223 MBq/nmol) was administered in the middle of the first PARP inhibitor treatment cycle (at day 21 or at day 13, respectively). Study endpoint was a tumor size exceeding 15 mm in each dimension.

[2] = tested on: H446 cells; experiment: Cell viability (IC50) assay in H446 SCLC cells; format: cell-based, human
Method: FIG. 1A: H446 and H69 cells treated with increasing concentrations of Rucaparib. […] (IC50 values: ^177Lu-DOTA-TOC: 8.9 kBq, ^177Lu-DOTATOC and 5 μM Rucaparib: 0.9 kBq, ^177LU-DOTATOC and 20 μM Rucaparib; 0.4 kBq)
(§1) FIG. 1A). […] At such concentrations, neither Rucaparib nor ^177Lu-DOTATOC, respectively, alone have any major impact on cell viability. The activity required for ^177Lu-DOTATOC to reduce cell viability to 50% by H446 cells in the combination treatment was reduced by a factor of 10 (5 μM Rucaparib) to 22 (20 μM Rucaparib).
(§2) Further evidence for such a synergistic effect was collected by analogous viability assays employing other PARP inhibitors, such as Olaparib and Talazoparib, in combination with ^177Lu-DOTATOC. The applied PARP inhibitor concentrations for combination therapy was adjusted depending on their individual cytotoxicity. […] That finding was proven in all cell lines.

[3] = tested on: H69 cells; experiment: Cell viability (IC50) assay in H69 SCLC cells; format: cell-based, human
Description: FIG. 3A: Determination of the IC50 values of Rucaparib in the H446 and H69 cell lines. FIG. 3B: H446, FIG. 3C: H69 cell lines. Cell viability was studied upon combined cell treatment with Olaparib and ^177Lu-DOTA-TOC vs. ^177Lu-DOTA-TOC alone.
as §1, §2

[4] = tested on: PARP; details: cited from earlier work
[5] = tested on: SSTR2; experiment: in vivo; design: species or system athymic nude mice; details: athymic nude, mouse, 10 MBq
Method: (§3) H446 and H69 as SSTR2 expressing SCLC cell lines were subcutaneously inoculated into mice to establish a mouse xenograft model. The results were obtained from PET scans. […] By control experiments, the tumors were blocked with non-radioactive (non-labelled) DOTATOC (octreotide) for comparative reasons (“w/Block”).
(§4) Tumor accumulation of ^68Ga-DOTATOC (10 MBq) was evaluated in SCLC xenograft mouse model by subcutaneous inoculation of 2-3 mio SSTR2 expressing H446 and H69 cells, respectively, into athymic nude mice. The results (obtained from PET scans) shown in FIG. 8 reveal a visible uptake of ^68Ga-DOTATOC in the tumor after 4 hours p.i.

[6] = tested on: SSTR2 expressing H69 cells; experiment: in vivo; design: species or system athymic nude mice; details: mouse
Method: as §3, §4

[7] = tested on: SSTR2; experiment: in vivo; design: species or system athymic nude mice; details: athymic nude, mouse, 10 MBq; remark: listed apart in the source
Method: as §3, §4

Structure (SMILES): O=C(c1cc(Cc2n[nH]c(=O)c3ccccc23)ccc1F)N1CCN(C(=O)C2CC2)CC1 [Olaparib]
Anti-cancer effect of single therapy [1]: did not result in major anti-cancer effects

IC50 ([2]; Homo sapiens, NCI-H446, Rucaparib alone): 32 µM
Structure (SMILES): CNCc1ccc(-c2[nH]c3cc(F)cc4c3c2CCNC4=O)cc1 [Rucaparib]
Cell viability ([2]; 20 μM Rucaparib alone): slightly reduced | Cell viability ([3]; 20 μM Rucaparib alone): slightly reduced | IC50 ([3]; Homo sapiens, NCI-H69, Rucaparib alone): 36 µM | Anti-cancer effect of single therapy [1]: did not result in major anti-cancer effects

Structure (SMILES): Cn1ncnc1[C@H]1c2n[nH]c(=O)c3cc(F)cc(c23)N[C@@H]1c1ccc(F)cc1 [Talazoparib]
Potency relative to olaparib [4]: about 100 times

Structure (SMILES): C[C@@H](O)[C@@H]1NC(=O)[C@H](CCCCN)NC(=O)[C@@H](Cc2c[nH]c3ccccc23)NC(=O)[C@H](Cc2ccc(O)cc2)NC(=O)[C@@H](NC(=O)[C@@H](Cc2ccccc2)NC(=O)CN2CCN(CC(=O)O)CCN(CC(=O)O)CCN(CC(=O)O)CC2)CSSC[C@@H](C(=O)N[C@H](CO)[C@@H](C)O)NC1=O [^68Ga-DOTATOC, ^68Ga-DOTA-D-Phe-cyclo(Cys-Tyr-D-Trp-Lys-Thr-Cys)Thr(ol), metal not drawn]
tissue uptake at 4 h [5]: 1 to 3 %ID/g | Uptake in H69 cells relative to H446 cells [6]: ~2 fold | tissue uptake at 4 h [7]: 1 to 3 %ID/g
